These results are taken from patent US9045468B2, “2,5-methano- and 2,5-ethano-tetrahydrobenzazepine derivatives and use thereof to block reuptake of norepinephrine, dopamine, and serotonin” (Albany Molecular Research, Inc., priority 2010, dated 2015).

Structures are written as SMILES.

For assay [1], the target named is hSERT (Homo sapiens (Human), UniProt P31645). Put plainly: SERT radioligand binding assay ([125I]RTI-55, HEK-293 membranes). The conditions noted are these: recombinant HEK-293 membranes, [125I]RTI-55; read-out: Binding Affinity (IC50, nM) SERT.
The target in assay [2] is hDAT (Homo sapiens (Human), UniProt Q01959). The experiment in a line: DAT radioligand binding assay ([125I]RTI-55, HEK-293 membranes). The conditions noted are these: recombinant HEK-293 membranes, [125I]RTI-55; read-out: Binding Affinity (IC50, nM) DAT.
Assay [3] deals with hNET (Homo sapiens (Human), UniProt P23975). Put plainly: NET radioligand binding assay ([3H]nisoxetine, HEK-293 membranes). The conditions noted are these: recombinant HEK-293 membranes, [3H]nisoxetine; read-out: Binding Affinity (IC50, nM) NET.
Assay [4] has as its system SERT. The experiment in a line: Ex vivo transporter occupancy assay, SERT ([3H]citalopram, brain tissue). The conditions noted are these: dosed orally, time until sacrifice 3 h. The class given is in vivo. From the text: (§1) The general procedure for brain tissue collection and transporter occupancy assessment is briefly described as follows. Mice were sacrificed by asphyxiation in CO2, rats by decapitation and dogs by IV injection of euthanasia solution. For mice and rats, after the brains were removed from the skull, the forebrain tissue (removal of the brainstem and cerebellum) was used for SERT, NET, and DAT occupancy assessment. In dogs, the striatum was dissected for DAT occupancy and the remaining forebrain tissue (without the striatum, brainstem, and cerebellum) was used for SERT and NET occupancy assessment. The brain tissues were frozen in chilled isopentane and stored at −80° C. until homogenization.
(§2) The brain tissues were thawed and then homogenized using a polytron homogenizer (Kinematica). Sample aliquots were frozen immediately and stored at −80° C. Protein content was measured for each sample using a Coomassie protein assay kit (Pierce).
On the day of ex vivo binding for occupancy assessment, frozen sample aliquots were thawed and needle homogenized, and 100 μg of the tissue was incubated for SERT, NET, and DAT binding under assay conditions summarized in Table 1. After incubation, the reactions were terminated by the addition of ice-cold assay buffer and rapid filtration through a Brandel Cell Harvester using FPXLR-196 filters. The filters were washed twice with ice-cold incubation buffer, punched into a clear plate prior to the addition of 200 ul scintillation fluid per well. Radioligand was measured using a Wallac Microbeta liquid scintillation counter.
(§3) The specific binding was calculated by subtracting the value of the non-specific binding from that of the total binding in each sample. The percent occupancy was calculated as (1−specific binding in drug treated/specific binding in vehicle treated)×100%. […] Nonlinear regression was performed using GraphPad Prism version 3.00 (GraphPad Software, San Diego, Calif.).

Assay [5] concerns DAT. The experiment in a line: Ex vivo transporter occupancy assay, DAT ([125I]RTI-55, brain tissue). The format is in vivo. The conditions noted are these: dosed orally, time until sacrifice 3 h.
Description: as §1, §2
(§4) On the day of ex vivo binding for occupancy assessment, frozen sample aliquots were thawed and needle homogenized, and 100 μg of the tissue was incubated for SERT, NET, and DAT binding under assay conditions summarized in Table 1. […] The filters were washed twice with ice-cold incubation buffer, punched into a clear plate prior to the addition of 200 ul scintillation fluid per well. Radioligand was measured using a Wallac Microbeta liquid scintillation counter.
as §3

Assay [6] has as its system NET. Put plainly: Ex vivo transporter occupancy assay, NET ([3H]nisoxetine, brain tissue). The conditions noted are these: dosed orally, time until sacrifice 3 h. The format is in vivo.
Description: as §1, §2, §4, §3

Chain of hSERT (P31645 whole entry): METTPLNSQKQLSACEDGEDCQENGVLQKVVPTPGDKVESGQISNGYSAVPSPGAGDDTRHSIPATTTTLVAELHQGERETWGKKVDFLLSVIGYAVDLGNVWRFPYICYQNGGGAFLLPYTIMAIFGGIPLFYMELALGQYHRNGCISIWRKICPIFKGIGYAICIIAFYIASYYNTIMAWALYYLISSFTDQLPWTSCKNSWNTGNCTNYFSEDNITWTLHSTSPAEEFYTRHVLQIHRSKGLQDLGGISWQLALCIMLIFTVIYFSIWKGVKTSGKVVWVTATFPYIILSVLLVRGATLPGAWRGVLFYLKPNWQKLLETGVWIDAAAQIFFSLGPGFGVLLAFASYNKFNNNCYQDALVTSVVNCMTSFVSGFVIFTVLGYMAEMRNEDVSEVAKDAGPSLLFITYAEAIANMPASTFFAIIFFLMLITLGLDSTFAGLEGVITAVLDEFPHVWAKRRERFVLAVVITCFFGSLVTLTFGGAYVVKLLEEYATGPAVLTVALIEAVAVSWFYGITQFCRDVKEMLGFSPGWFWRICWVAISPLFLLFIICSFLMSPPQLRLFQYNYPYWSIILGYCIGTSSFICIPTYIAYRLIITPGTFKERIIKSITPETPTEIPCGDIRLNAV
Chain of hDAT (Q01959 whole entry): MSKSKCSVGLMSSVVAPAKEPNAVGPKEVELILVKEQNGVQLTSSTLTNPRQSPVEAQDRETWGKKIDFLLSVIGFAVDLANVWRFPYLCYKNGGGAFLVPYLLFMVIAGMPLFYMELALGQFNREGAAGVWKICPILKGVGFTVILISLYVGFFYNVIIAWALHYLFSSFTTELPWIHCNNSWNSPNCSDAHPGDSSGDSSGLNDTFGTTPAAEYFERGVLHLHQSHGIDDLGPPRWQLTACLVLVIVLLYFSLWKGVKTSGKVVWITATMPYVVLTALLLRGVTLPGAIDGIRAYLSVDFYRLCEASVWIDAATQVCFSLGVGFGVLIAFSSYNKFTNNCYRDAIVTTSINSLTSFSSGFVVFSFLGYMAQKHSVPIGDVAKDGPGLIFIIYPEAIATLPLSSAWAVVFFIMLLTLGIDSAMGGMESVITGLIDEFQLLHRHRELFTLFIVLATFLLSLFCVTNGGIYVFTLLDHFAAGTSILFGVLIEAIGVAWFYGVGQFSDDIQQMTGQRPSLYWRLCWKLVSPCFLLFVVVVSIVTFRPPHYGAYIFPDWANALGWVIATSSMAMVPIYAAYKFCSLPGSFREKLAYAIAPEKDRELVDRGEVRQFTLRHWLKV
Chain of hNET (P23975 whole entry): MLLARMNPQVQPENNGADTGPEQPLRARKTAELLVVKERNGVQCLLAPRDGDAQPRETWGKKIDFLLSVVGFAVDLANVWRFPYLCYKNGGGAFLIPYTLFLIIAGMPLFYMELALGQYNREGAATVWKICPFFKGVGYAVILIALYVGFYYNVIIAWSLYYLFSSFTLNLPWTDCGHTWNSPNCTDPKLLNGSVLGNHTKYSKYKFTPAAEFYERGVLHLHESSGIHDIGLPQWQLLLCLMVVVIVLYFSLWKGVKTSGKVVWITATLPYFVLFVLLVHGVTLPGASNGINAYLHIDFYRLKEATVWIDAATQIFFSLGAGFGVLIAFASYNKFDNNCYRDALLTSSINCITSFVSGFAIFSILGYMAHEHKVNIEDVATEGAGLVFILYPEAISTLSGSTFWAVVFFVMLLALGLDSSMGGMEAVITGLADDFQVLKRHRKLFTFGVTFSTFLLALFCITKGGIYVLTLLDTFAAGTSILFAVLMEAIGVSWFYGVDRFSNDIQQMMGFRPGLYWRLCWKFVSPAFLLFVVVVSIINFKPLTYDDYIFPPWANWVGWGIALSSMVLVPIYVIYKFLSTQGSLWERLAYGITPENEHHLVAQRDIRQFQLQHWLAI

The term IC50 denotes the midpoint of a concentration-inhibition curve. Turning to `FC(F)Oc1ccc(-c2ccc3c(c2)CN2CCC3(c3ccc(Cl)cc3)C2)nn1` (single isomer, unassigned) [6(−), 5-(4-chlorophenyl)-8(6-(difluoromethoxy)pyridazin-3-yl)-2,5-methano-2,3,4,5-tetrahydro-1H-benzo[c]azepine], the IC50 in assay [1] came to 5.9 nM; in assay [2], 87.2 nM; in assay [3] it was 275 nM. For the same molecule, the “% Occupancy SERT” value in assay [4] (3 mg/kg) is 59%. Also, the “% Occupancy DAT” value in assay [5] (3 mg/kg) is given as 12%. For the same molecule, the “% Occupancy NET” value in assay [6] (3 mg/kg) is given as 0%.

`Oc1ccc(-c2ccc3c(c2)CN2CCC3(c3ccc(Cl)cc3)C2)nn1` (single isomer, unassigned) [7(−), 6-(5-(4-chlorophenyl)-2,5-methano-2,3,4,5-tetrahydro-1H-benzo[c]azepin-8-yl)pyridazin-3-ol]: the IC50 turned out to be 6.4 nM in assay [1], 16.6 nM in assay [2] and 103 nM in assay [3]. In assay [4] (1 mg/kg), the “% Occupancy SERT” value amounted to 70%. Further, in assay [5] (1 mg/kg), the “% Occupancy DAT” value turned out to be 1%. Moreover, the “% Occupancy NET” value in assay [6] (1 mg/kg) was 46%.

For `FC(F)Oc1ccc(-c2ccc3c(c2)CN2CCC3(c3ccc(Cl)cc3)CC2)nn1` [Example 14, 5-(4-chlorophenyl)-8-(6-(difluoromethoxy)pyridazin-3-yl)-2,5-ethano-2,3,4,5-tetrahydro-1H-2-benzo[c]azepine], the IC50 in assay [1] is 1.1 nM; in assay [2], 57.3 nM; in assay [3], 264 nM. Further, the “% Occupancy SERT” value in assay [4] (3 mg/kg) came to 79%. Moreover, the “% Occupancy DAT” value in assay [5] (3 mg/kg) was found to be 12%. In assay [6] (3 mg/kg), the “% Occupancy NET” value was found to be 0%.

On to `Clc1ccc(C23CCN(CC2)Cc2cc(-c4cnccn4)ccc23)cc1` [Example 17, 5-(4-chlorophenyl)-2,5-ethano-8-(pyrazin-2-yl)-2,3,4,5-tetrahydro-1H-benzo[c]azepine], for which the figures for the IC50 in assay [1], in assay [2] and in assay [3] were 5.3 nM, 83.5 nM and 2300 nM, respectively. The “% Occupancy SERT” value in assay [4] (1 mg/kg) turned out to be 77%. In addition, the “% Occupancy DAT” value in assay [5] (1 mg/kg) was determined as 0%. The “% Occupancy NET” value in assay [6] (1 mg/kg) came out at 12%.

`Nc1cnc(-c2ccc3c(c2)CN2CCC3(c3ccc(Cl)cc3)CC2)cn1` [Example 18, 5-(5-(4-chlorophenyl)-2,5-ethano-2,3,4,5-tetrahydro-1H-benzo[c]azepin-8-yl)pyrazin-2-amine]: the IC50 in assay [1] turned out to be 3.5 nM; in assay [2], 47.6 nM; in assay [3] it was 925 nM. The “% Occupancy SERT” value in assay [4] (3 mg/kg) was found to be 89%. In addition, the “% Occupancy DAT” value in assay [5] (3 mg/kg) is 15%. For the same molecule, the “% Occupancy NET” value in assay [6] (3 mg/kg) came to 6%.

As for `O=C1NC2C=CC(c3ccc4c(c3)CN3CCC4(c4ccc(Cl)cc4)CC3)=CC2O1` (centres unmarked) [Example 22, 6-(5-(4-chlorophenyl)-2,5-ethano-2,3,4,5-tetrahydro-1H-benzo[c]azepin-8-yl)-3,3a-dihydrobenzo[d]oxazol-2(7aH)-one], the IC50 in assay [1] stood at 3.4 nM; in assay [2] it was 58.6 nM; in assay [3], 806 nM. In addition, in assay [4] (3 mg/kg), the “% Occupancy SERT” value is recorded as 60%. Also, in assay [5] (3 mg/kg), the “% Occupancy DAT” value stood at 5%. Besides, in assay [6] (3 mg/kg), the “% Occupancy NET” value is reported as 0%.

Take `CS(=O)(=O)c1ccc(-c2ccc3c(c2)CN2CCC3(c3ccc(Cl)cc3)CC2)cc1` [Example 26, 5-(4-chlorophenyl)-2,5-ethano-8-(4-(methylsulfonyl)phenyl)-2,3,4,5-tetrahydro-1H-benzo[c]azepine]: the IC50 amounted to 7.2 nM in assay [1], 63 nM in assay [2] and 432 nM in assay [3]. For the same molecule, in assay [4] (1 mg/kg), the “% Occupancy SERT” value is listed as 14%. Besides, in assay [5] (1 mg/kg), the “% Occupancy DAT” value worked out at 3%. Also, the “% Occupancy NET” value in assay [6] (1 mg/kg) is listed as 0%.

Turning to `FC(F)(F)c1ccc(Oc2ccc3c(c2)CN2CCC3(c3ccc(Cl)cc3)CC2)nn1` [Example 32, 5-(4-chlorophenyl)-2,5-ethano-8-(6-(trifluoromethyl)pyridazin-3-yloxy)-2,3,4,5-tetrahydro-1H-benzo[c]azepine], the figures for the IC50 in assay [1], in assay [2] and in assay [3] were 4.3 nM, 36.5 nM and 124 nM, respectively. For the same molecule, the “% Occupancy SERT” value in assay [4] (3 mg/kg) is reported as 74%. For the same molecule, the “% Occupancy DAT” value in assay [5] (3 mg/kg) was determined as 42%. Also, in assay [6] (3 mg/kg), the “% Occupancy NET” value was 0%.

With `FC(F)Oc1ccc(-c2ccc3c(c2)CN2CCC3(c3ccc(Cl)c(Cl)c3)CC2)nn1` [Example 39, 5-(3,4-dichlorophenyl)-8-(6-(difluoromethoxy)pyridazin-3-yl)-2,5-ethano-2,3,4,5-tetrahydro-1H-benzo[c]azepine], the IC50 was found to be 3.8 nM in assay [1], 26.1 nM in assay [2] and 53.5 nM in assay [3]. In addition, in assay [4] (3 mg/kg), the “% Occupancy SERT” value is recorded as 59%. Moreover, the “% Occupancy NET” value in assay [6] (3 mg/kg) is on record as 41%.

`Nc1cnc(-c2ccc3c(c2)CN2CCC3(c3ccc(Cl)c(Cl)c3)CC2)cn1` [Example 42, 5-(5-(3,4-dichlorophenyl)-2,5-ethano-2,3,4,5-tetrahydro-1H-benzo[c]azepin-8-yl)pyrazin-2-amine]: the IC50 stood at 5.9 nM in assay [1], 9.2 nM in assay [2] and 155 nM in assay [3]. For the same molecule, the “% Occupancy SERT” value in assay [4] (3 mg/kg) stood at 82%. For the same molecule, the “% Occupancy DAT” value in assay [5] (3 mg/kg) amounted to 54%. Besides, the “% Occupancy NET” value in assay [6] (3 mg/kg) is 39%.

For the molecule `FC(F)(F)c1ccc(Oc2ccc3c(c2)CN2CCC3(c3ccc(Cl)c(Cl)c3)CC2)nn1` [Example 45, 5-(3,4-dichlorophenyl)-2,5-ethano-8-(6-(trifluoromethyl)pyridazin-3-yloxy)-2,3,4,5-tetrahydro-1H-benzo[c]azepine], the figures for the IC50 in assay [1], in assay [2] and in assay [3] were 4.8 nM, 0.7 nM and 35.1 nM, respectively. For the same molecule, the “% Occupancy SERT” value in assay [4] (1 mg/kg) is 46%. The “% Occupancy DAT” value in assay [5] (1 mg/kg) amounted to 17%. The “% Occupancy NET” value in assay [6] (1 mg/kg) was 0%.

In the case of `Fc1ccc(C23CCN(CC2)Cc2cc(Oc4ccc(C(F)(F)F)nn4)ccc23)cc1Cl` [Example 47, 5-(3-chloro-4-fluorophenyl)-2,5-ethano-8-(6-(trifluoromethyl)pyridazin-3-yloxy)-2,3,4,5-tetrahydro-1H-benzo[c]azepine], the results for the 50% inhibitory concentration (IC50) in assay [1], in assay [2] and in assay [3] were 6.4 nM, 9 nM and 112 nM, respectively. Further, the “% Occupancy SERT” value in assay [4] (1 mg/kg) was 34%. Also, the “% Occupancy DAT” value in assay [5] (1 mg/kg) came out at 17%. Moreover, the “% Occupancy NET” value in assay [6] (1 mg/kg) is recorded as 0%.

As to `Fc1cc(C23CCN(CC2)Cc2cc(Oc4ccc(C(F)(F)F)nn4)ccc23)ccc1Cl` [Example 48, 5-(4-chloro-3-fluorophenyl)-2,5-ethano-8-(6-(trifluoromethyl)pyridazin-3-yloxy)-2,3,4,5-tetrahydro-1H-benzo[c]azepine], the IC50 is 7.2 nM in assay [1], 10.1 nM in assay [2] and 134 nM in assay [3]. In assay [4] (1 mg/kg), the “% Occupancy SERT” value is listed as 21%. Moreover, the “% Occupancy DAT” value in assay [5] (1 mg/kg) is recorded as 12%. In addition, in assay [6] (1 mg/kg), the “% Occupancy NET” value is recorded as 0%.
